Source: paper PMC4712254 (Clinical Pharmacokinetics, 2015)
Marks after values point to notes of the source that are not given here.

Legend:
[1] = Plasma pharmacokinetics of probe drugs and metabolites in healthy male subjects
[2] = both CYP2B6 probe drugs; cited from earlier work
[3] = tested on: CYP2B6; experiment: Basel cocktail phenotyping of CYP2B6; assay type: in vivo, human; settings: plasma, geometric mean (90 % CI)
[4] = tested on: CYP2C9; experiment: Basel cocktail phenotyping of CYP2C9; assay type: in vivo, human; settings: for [los]/[E3174]: plasma, geometric mean (90 % CI); for metabolic ratios at 6 h: the other subjects
[5] = tested on: p-glycoprotein (pgp); settings: cited from earlier work
[6] = tested on: CYP2D6; experiment: Basel cocktail phenotyping of CYP2D6; assay type: in vivo, human; settings: plasma, geometric mean (90 % CI)
[7] = tested on: CYP3A4; experiment: Basel cocktail phenotyping of CYP3A4; assay type: in vivo, human; settings: plasma, geometric mean (90 % CI)
[8] = tested on: CYP2C19; experiment: Basel cocktail phenotyping of CYP2C19; assay type: in vivo, human; settings: plasma, geometric mean (90 % CI)
[9] = tested on: CYP2B6; settings: cited from earlier work
[10] = tested on: CYP2C19; settings: cited from earlier work
[11] = tested on: CYP1A2; settings: cited from earlier work
[12] = tested on: CYP2B6; settings: cited from earlier work; remark: listed apart in the source
[13] = 4 h, Cocktail + inducer (rifampicin)
[14] = 6 h, Cocktail + inducer (rifampicin)
[15] = 8 h, Cocktail + inducer (rifampicin)
[16] = 2 h, Cocktail + inducer (rifampicin)

With `O=C1Nc2c(O)cc(Cl)cc2[C@@](C#CC2(O)CC2)(C(F)(F)F)O1` [8,14-dihydroxy-efavirenz] the “plasma concentrations after deglucuronidation” value ([1]; after deglucuronidation) was “lower than 6 ng/mL” and the plasma concentrations ([1]; without deglucuronidation) was “below the limit of quantification”.

For `CC(NC(C)(C)C)C(=O)c1cccc(Cl)c1` (stereo not shown) [bupropion], the half-life [2] is given as 50 to 70 h.

For `O=C1Nc2ccc(Cl)cc2[C@@](C#CC2CC2)(C(F)(F)F)O1` [efavirenz], the “[efa]/[OH-efa]” value [3, 13] was 19.3 (17.9–21.3)***^a, the “[efa]/[OH-efa]” value ([3]; 4 h, Cocktail + inhibitors) was 84.1 (71.9–115.0)*** and the “[efa]/[OH-efa]” value ([3]; 4 h, Cocktail alone (baseline)) was 38.7 (34.8–48.5). For the same molecule, the “[efa]/[OH-efa]” value [3, 14] was 23.1 (21.3–25.7)***^a, the “[efa]/[OH-efa]” value ([3]; 6 h, Cocktail + inhibitors) was 77.6 (69.3–94.2)***^a and the “[efa]/[OH-efa]” value ([3]; 6 h, Cocktail alone (baseline)) was 43.7 (39.5–51.3). For the same molecule, the “[efa]/[OH-efa]” value [3, 15] was 27.7 (26.0–30.8)***^a, the “[efa]/[OH-efa]” value ([3]; 8 h, Cocktail + inhibitors) was 88.7 (79.7–108.0)*** and the “[efa]/[OH-efa]” value ([3]; 8 h, Cocktail alone (baseline)) was 53.2 (47.8–62.6).

For `CCCCc1nc(Cl)c(CO)n1Cc1ccc(-c2ccccc2-c2nn[nH]n2)cc1` [losartan], the “[los]/[E3174]” value [4, 16] was 0.44 (0.37–0.96)**^b, the “[los]/[E3174]” value ([4]; 2 h, Cocktail + inhibitors) was 3.39 (2.66–4.62)ns^f and the “[los]/[E3174]” value ([4]; 2 h, Cocktail alone (baseline)) was 1.18 (1.17–2.99). For the same molecule, the “[los]/[E3174]” value [4, 13] was 0.08 (0.06–0.16)**^a, the “[los]/[E3174]” value ([4]; 4 h, Cocktail + inhibitors) was 1.17 (1.03–2.09)*** and the “[los]/[E3174]” value ([4]; 4 h, Cocktail alone (baseline)) was 0.17 (0.14–0.37). The “[los]/[E3174]” value [4, 14] was 0.06 (0.04–0.12)***^c, the “[los]/[E3174]” value ([4]; 6 h, Cocktail + inhibitors) was 0.55 (0.47–1.01)***^a and the “[los]/[E3174]” value ([4]; 6 h, Cocktail alone (baseline)) was 0.10 (0.08–0.19). For the same molecule, the “[los]/[E3174]” value [4, 15] was 0.05 (0.04–0.07) ns^b, the “[los]/[E3174]” value ([4]; 8 h, Cocktail + inhibitors) was 0.24 (0.20–0.42)*** and the “[los]/[E3174]” value ([4]; 8 h, Cocktail alone (baseline)) was 0.05 (0.04–0.08). For the same molecule, the “metabolic ratios at 6 h” value ([4]; baseline) was 0.04–0.11, the “metabolic ratios at 6 h” value ([4]; inhibition) was 0.20–0.53 and the “p-glycoprotein (pgp) substrate” value [5] was “transported by p-glycoprotein”.

For `COCCc1ccc(OCC(O)CNC(C)C)cc1` (stereo not shown) [metoprolol], the “[met]/[OH-met]” value [6, 16] was 1.83 (1.60–2.18) nt^d, the “[met]/[OH-met]” value ([6]; 2 h, Cocktail alone (baseline)) was 1.93 (1.56–2.47)^e and the “[met]/[OH-met]” value [6, 13] was 2.02 (1.84–2.31) ns^a. For the same molecule, the “[met]/[OH-met]” value ([6]; 4 h, Cocktail + inhibitors) was 6.60 (5.90–7.85)***, the “[met]/[OH-met]” value ([6]; 4 h, Cocktail alone (baseline)) was 2.20 (2.00–2.54) and the “[met]/[OH-met]” value [6, 14] was 1.88 (1.69–2.20)*^a. The “[met]/[OH-met]” value ([6]; 6 h, Cocktail + inhibitors) was 8.99 (8.33–10.01)***, the “[met]/[OH-met]” value ([6]; 6 h, Cocktail alone (baseline)) was 2.36 (2.16–2.69)^a and the “[met]/[OH-met]” value [6, 15] was 1.67 (1.51–1.93) ns^b. The “[met]/[OH-met]” value ([6]; 8 h, Cocktail + inhibitors) was 9.90(9.06–11.39)*** and the “[met]/[OH-met]” value ([6]; 8 h, Cocktail alone (baseline)) was 2.11 (1.91–2.44).

For `Cc1ncc2n1-c1ccc(Cl)cc1C(c1ccccc1F)=NC2` [midazolam], the “[mid]/[OH-mid]” value [7, 16] was 1.73 (1.54–2.11) ns^a, the “[mid]/[OH-mid]” value ([7]; 2 h, Cocktail + inhibitors) was 3.46 (3.10–4.29)*** and the “[mid]/[OH-mid]” value ([7]; 2 h, Cocktail alone (baseline)) was 1.31 (1.16–1.77). The “[mid]/[OH-mid]” value ([7]; 4 h, Cocktail alone (baseline)) was 1.51 (1.33–1.97).

In the case of `COc1ccc2[nH]c([S+]([O-])Cc3ncc(C)c(OC)c3C)nc2c1` (stereo not shown) [omeprazole], the “[ome]/[OH-ome]” value [8, 16] is reported as 0.25 (0.22–0.35)**^a, the “[ome]/[OH-ome]” value ([8]; 2 h, Cocktail + inhibitors) is reported as 25.8 (22.7–33.2)*** and the “[ome]/[OH-ome]” value ([8]; 2 h, Cocktail alone (baseline)) is reported as 1.08 (0.90–1.46). The “[ome]/[OH-ome]” value [8, 13] was 0.18 (0.15–0.24)***^a, the “[ome]/[OH-ome]” value ([8]; 4 h, Cocktail + inhibitors) was 18.1 (16.0–22.5)*** and the “[ome]/[OH-ome]” value ([8]; 4 h, Cocktail alone (baseline)) was 0.49 (0.38–0.86). The “[ome]/[OH-ome]” value ([8]; 6 h, Cocktail + inhibitors) was 14.6 (12.5–18.8)nt^a and the “[ome]/[OH-ome]” value ([8]; 6 h, Cocktail alone (baseline)) was 0.28 (0.18–0.55)^b.

For `Fc1ccc([C@@H]2CCNC[C@H]2COc2ccc3c(c2)OCO3)cc1` [paroxetine], the “CYP2B6 inhibition in vitro” value [9] is listed as “CYP2B6 inhibitor in vitro”.

In the case of `CO[C@H]1/C=C/O[C@@]2(C)Oc3c(C)c(O)c4c(O)c(c(/C=N/N5CCN(C)CC5)c(O)c4c3C2=O)NC(=O)/C(C)=C\C=C\[C@H](C)[C@H](O)[C@@H](C)[C@@H](O)[C@@H](C)[C@H](OC(C)=O)[C@@H]1C` [rifampicin], the “concentrations in one subject compared with the other subjects” value ([1]; subject excluded from induction data, higher) is listed as “approximately 100 fold”, the “in vivo inducer class, 2C19” value [10] is listed as “moderate inducer (50–80 % decrease in AUC)” and the “in vivo inducer class, CYP1A2” value [11] is listed as “weak inducer”. For the same molecule, the “in vivo inducer class, CYP2B6” value [12] was “moderate inducer (50–80 % decrease in AUC)”.
